# ChEMBL document CHEMBL5728432, “Potent and selective mu opioid receptor modulators” (2021)
# Target: Mu-type opioid receptor (Homo sapiens, UniProt P35372)
# Test: Competition Binding Assay: The competition binding assay was conducted to determine the affinity and selectivity of the synthesized compounds to MOR over KOR and DOR. The Kd and Bmax values for [3H]NLX at MOR and [3H]DPN at KOR had been determined previously. […] [3H]NLX was used to label MOR whilst [3H]DPN was used to label both DOR and KOR. The potency of the new compounds in displacing the specific binding of the radioligand was determined by linear regression analysis of Hill plots.
# Sequence of Mu-type opioid receptor (P35372 whole entry): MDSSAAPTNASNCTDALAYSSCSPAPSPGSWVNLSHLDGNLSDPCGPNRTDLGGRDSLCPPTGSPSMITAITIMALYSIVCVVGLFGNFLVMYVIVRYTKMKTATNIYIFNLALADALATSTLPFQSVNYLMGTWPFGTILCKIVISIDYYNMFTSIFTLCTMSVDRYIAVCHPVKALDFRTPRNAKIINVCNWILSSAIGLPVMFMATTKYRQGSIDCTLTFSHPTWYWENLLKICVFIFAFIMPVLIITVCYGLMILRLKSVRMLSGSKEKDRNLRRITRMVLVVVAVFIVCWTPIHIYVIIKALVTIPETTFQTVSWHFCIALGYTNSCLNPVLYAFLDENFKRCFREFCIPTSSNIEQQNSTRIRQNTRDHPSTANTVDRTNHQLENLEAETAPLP
row,Structure (SMILES),Ki
1,O=C(Cc1c[nH]c2ccccc12)N[C@@H]1CC[C@@]2(O)[C@H]3Cc4ccc(O)c5c4[C@@]2(CCN3CC2CC2)[C@H]1O5,0.241 nM
2,O=C(N[C@H]1CC[C@@]2(O)[C@H]3Cc4ccc(O)c5c4[C@@]2(CCN3CC2CC2)[C@H]1O5)c1ccc2cc[nH]c2c1,0.434 nM
3,O=C(CCCc1c[nH]c2ccccc12)N[C@@H]1CC[C@@]2(O)[C@H]3Cc4ccc(O)c5c4[C@@]2(CCN3CC2CC2)[C@H]1O5,0.203 nM
4,O=C(CCc1c[nH]c2ccccc12)N[C@@H]1CC[C@@]2(O)[C@H]3Cc4ccc(O)c5c4[C@@]2(CCN3CC2CC2)[C@H]1O5,0.167 nM
5,O=C(CCCc1c[nH]c2ccccc12)N[C@H]1CC[C@@]2(O)[C@H]3Cc4ccc(O)c5c4[C@@]2(CCN3CC2CC2)[C@H]1O5,0.293 nM
6,O=C(N[C@H]1CC[C@@]2(O)[C@H]3Cc4ccc(O)c5c4[C@@]2(CCN3CC2CC2)[C@H]1O5)c1cccc2[nH]ccc12,0.264 nM
7,O=C(N[C@H]1CC[C@@]2(O)[C@H]3Cc4ccc(O)c5c4[C@@]2(CCN3CC2CC2)[C@H]1O5)c1c[nH]c2ccccc12,0.288 nM
8,O=C(N[C@H]1CC[C@@]2(O)[C@H]3Cc4ccc(O)c5c4[C@@]2(CCN3CC2CC2)[C@H]1O5)c1cc2ccccc2[nH]1,0.363 nM
9,O=C(N[C@H]1CC[C@@]2(O)[C@H]3Cc4ccc(O)c5c4[C@@]2(CCN3CC2CC2)[C@H]1O5)c1ccc2[nH]ccc2c1,0.763 nM
10,O=C(Cc1c[nH]c2ccccc12)N[C@H]1CC[C@@]2(O)[C@H]3Cc4ccc(O)c5c4[C@@]2(CCN3CC2CC2)[C@H]1O5,0.837 nM
11,O=C(CCc1c[nH]c2ccccc12)N[C@H]1CC[C@@]2(O)[C@H]3Cc4ccc(O)c5c4[C@@]2(CCN3CC2CC2)[C@H]1O5,0.437 nM
